According to US4450269A, “Mono-5-substituted-3-chloro-4H-1,2,6-thiadiazin-4-one antifungal agents” (FMC Corporation, priority 1980, dated 1984):

Legend:
Experiment in all cases: Spore germination test
Type in all cases: cell-based
Alternaria solani = conditions: AS, 48 hours
Method in brief: (§1)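 Compound in acetone was mixed into water agar at final 40, 10, 2.5 and 1 ppm and poured into quadrant dishes. Quadrants received spore suspension, while Erysiphe polygoni and Uromyces phaseoli spores were brushed on from infected leaves. After 48 h at 24 °C, the percentage of germinated spores was converted to a germination rating.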

Erysiphe polygoni = conditions: EP, 48 hours
Method in brief: as §1

Uromyces phaseoli = conditions: UP, 48 hours
Method in brief: as §1

| SMILES | Spore Germination Rating (Alternaria solani; 1.0 ppm) | Spore Germination Rating (Alternaria solani; 2.5 ppm) | Spore Germination Rating (Alternaria solani; 10 ppm) | Spore Germination Rating (Alternaria solani; 40 ppm) | Spore Germination Rating (Erysiphe polygoni; 1.0 ppm) | Spore Germination Rating (Erysiphe polygoni; 2.5 ppm) | Spore Germination Rating (Erysiphe polygoni; 10 ppm) | Spore Germination Rating (Erysiphe polygoni; 40 ppm) | Spore Germination Rating (Uromyces phaseoli; 1.0 ppm) | Spore Germination Rating (Uromyces phaseoli; 2.5 ppm) | Spore Germination Rating (Uromyces phaseoli; 10 ppm) | Spore Germination Rating (Uromyces phaseoli; 40 ppm) |
| --- | --- | --- | --- | --- | --- | --- | --- | --- | --- | --- | --- | --- |
| CC(=O)c1cccc(Oc2nsnc(Cl)c2=O)c1 [Compound 48, 3-(3-acetylphenoxy)-5-chloro-4H--1,2,6-thiadiazin-4-one] | 4 (80-100) | 3 (60-80) | 0 (0-10) | 0 (0-10) | 4 (80-100) | 4 (80-100) | 2 (40-60) | 2 (40-60) | 0 (0-10) | 0 (0-10) | 0 (0-10) | 0 (0-10) |
| CC(=O)c1ccccc1Oc1nsnc(Cl)c1=O [Compound 49, 3-(2-acetylphenoxy)-5-chloro-4H--1,2,6-thiadiazin-4-one] | 4 (80-100) | 3 (60-80) | 2 (40-60) | 0 (0-10) | 4 (80-100) | 4 (80-100) | 2 (40-60) | 2 (40-60) | 4 (80-100) | 1 (10-40) | 0 (0-10) | 0 (0-10) |
| O=C(O)c1ccc(Oc2nsnc(Cl)c2=O)cc1 [Compound 50, 3-(4-carboxyphenoxy)-5-chloro-4H--1,2,6-thiadiazin-4-one] | 4 (80-100) | 4 (80-100) | 4 (80-100) | 4 (80-100) | 4 (80-100) | 4 (80-100) | 4 (80-100) | 2 (40-60) | 4 (80-100) | 4 (80-100) | 2 (40-60) | 0 (0-10) |
| COc1ccc(Cl)c(Oc2nsnc(Cl)c2=O)c1 [Compound 51, 3-chloro-5-[(2-chloro-5-methoxy)phenoxy]-4H--1,2,6-thiadiazin-4-one] | 4 (80-100) | 4 (80-100) | 1 (10-40) | 0 (0-10) | 4 (80-100) | 4 (80-100) | 0 (0-10) | 0 (0-10) | 0 (0-10) | 0 (0-10) | 0 (0-10) | 0 (0-10) |
| COc1cc(Cl)cc(Oc2nsnc(Cl)c2=O)c1 [Compound 52, 3-chloro-5-[(3-chloro-5-methoxy)phenoxy]-4H--1,2,6-thiadiazin-4-one] | 4 (80-100) | 3 (60-80) | 0 (0-10) | 0 (0-10) | 4 (80-100) | 2 (40-60) | 0 (0-10) | 0 (0-10) | 2 (40-60) | 0 (0-10) | 0 (0-10) | 0 (0-10) |
| O=c1c(Cl)nsnc1Oc1ccc([N+](=O)[O-])cc1Cl [Compound 53, 3-chloro-5-(2-chloro-4-nitrophenoxy)-4H--1,2,6-thiadiazin-4-one] | 2 (40-60) | 0 (0-10) | 0 (0-10) | 0 (0-10) | 2 (40-60) | 1 (10-40) | 0 (0-10) | 0 (0-10) | 1 (10-40) | 0 (0-10) | 0 (0-10) | 0 (0-10) |
| Cc1cc(Oc2nsnc(Cl)c2=O)ccc1Cl [Compound 54, 3-chloro-5-(4-chloro-3-methylphenoxy)-4H--1,2,6-thiadiazin-4-one] | 4 (80-100) | 4 (80-100) | 4 (80-100) | 4 (80-100) | 2 (40-60) | 0 (0-10) | 0 (0-10) | 0 (0-10) | 0 (0-10) | 0 (0-10) | 0 (0-10) | 0 (0-10) |
| Cc1cc(Cl)ccc1Oc1nsnc(Cl)c1=O [Compound 55, 3-chloro-5-(4-chloro-2-methylphenoxy)-4H--1,2,6-thiadiazin-4-one] | 4 (80-100) | 2 (40-60) | 1 (10-40) | 0 (0-10) | 1 (10-40) | 0 (0-10) | 0 (0-10) | 1 (10-40) | 0 (0-10) | 0 (0-10) | 0 (0-10) | 0 (0-10) |
| Cc1ccc(Oc2nsnc(Cl)c2=O)c(Br)c1 [Compound 57, 3-[(2-bromo-4-methyl)-phenoxy]-5-chloro-4H--1,2,6-thiadiazin-4-one] | 4 (80-100) | 2 (40-60) | 0 (0-10) | 0 (0-10) | 4 (80-100) | 0 (0-10) | 0 (0-10) | 0 (0-10) | 0 (0-10) | 0 (0-10) | 0 (0-10) | 0 (0-10) |
